Assay results from paper PMC10489073 (Molecules, 2023).

How the values were obtained:
HEL = experiment: Cell proliferation analysis (MTT); assay type: cell-based; conditions: Homo sapiens, 48 h, read-out: Anti-proliferative activity IC50, HEL
Description: (§1) All tumor cell lines in the current research were grown in a certain growth medium containing 10% FBS and 1% (v/v/v) penicillin–streptomycin–amphotericin at 37 °C in 5% CO2. Cells were seeded into 96-well plates at a density of 8 × 10^3 cells per well for tumor adherent cells and 2 × 10^4 cells per well for tumor-suspended cells in a final volume of 100 μL. After 12 h, 100 μL of various concentrations of compounds was added to each and incubated for 48 h. A 0.5% MTT solution was added per well before the intermixture was incubated for another 4 h, and formazan formed from MTT was extracted by adding […] of DMSO rocking for 15 min. Absorbance was measured at 570 nm using a Spark multimode microplate from Tecan. The IC50 values were calculated according to the inhibition ratios.

HCT116 = experiment: Cell proliferation analysis (MTT); assay type: cell-based; conditions: Homo sapiens, HCT-116, 48 h, read-out: Anti-proliferative activity IC50, HCT116
Description: as §1

U266 = experiment: Cell proliferation analysis (MTT); assay type: cell-based; conditions: Homo sapiens, U-266, 48 h, read-out: Anti-proliferative activity IC50, U266
Description: as §1

PC3 = experiment: Cell proliferation analysis (MTT); assay type: cell-based; conditions: Homo sapiens, PC-3, 48 h, read-out: Anti-proliferative activity IC50, PC3
Description: as §1

ARP-1 = experiment: Cell proliferation analysis (MTT); assay type: cell-based; conditions: 48 h, read-out: Anti-proliferative activity IC50, ARP-1
Description: as §1

RPMI-8266 = experiment: Cell proliferation analysis (MTT); assay type: cell-based; conditions: RPMI8266, 48 h, read-out: Anti-proliferative activity IC50, RPMI-8266
Description: as §1

SP2 = experiment: Cell proliferation analysis (MTT); assay type: cell-based; conditions: 48 h, read-out: Anti-proliferative activity IC50, SP2
Description: as §1

Hela = experiment: Cell proliferation analysis (MTT); assay type: cell-based; conditions: Homo sapiens, 48 h, read-out: Anti-proliferative activity IC50, Hela
Description: as §1

KG1 = experiment: Cell proliferation analysis (MTT); assay type: cell-based; conditions: Homo sapiens, KG-1, 48 h, read-out: Anti-proliferative activity IC50, KG1
Description: as §1

MDA-MB-231 = experiment: Cell proliferation analysis (MTT); assay type: cell-based; conditions: Homo sapiens, 48 h, read-out: Anti-proliferative activity IC50, MDA-MB-231
Description: as §1

HT-29 = experiment: Cell proliferation analysis (MTT); assay type: cell-based; conditions: Homo sapiens, 48 h, read-out: Anti-proliferative activity IC50, HT-29
Description: as §1

A2780 = experiment: Cell proliferation analysis (MTT); assay type: cell-based; conditions: Homo sapiens, 48 h, read-out: Anti-proliferative activity IC50, A2780
Description: as §1

MM.1S = experiment: Cell proliferation analysis (MTT); assay type: cell-based; conditions: Homo sapiens, MM1.S, 48 h, read-out: Anti-proliferative activity IC50, MM.1S
Description: as §1

U251 = experiment: Cell proliferation analysis (MTT); assay type: cell-based; conditions: Homo sapiens, U-251, 48 h, read-out: Anti-proliferative activity IC50, U251
Description: as §1

B16F10 cells = experiment: Survival time in mice bearing B16F10 cells; assay type: in vivo, C57BL/6 mice; conditions: for median survival time (MST): twice a week for two weeks, vehicle group 16 days
Description: The animal experiments were conducted under the guidelines of the “Regulations for the Administration of Affairs Concerning Experimental Animals” (revised 2017, State Council No. 676). Female C57/B6 mice at 5 to 6 weeks were implanted via intraperitoneal (ip) injection with 5.0 × 10^6 B16F10 cells per individual and randomly assigned into control groups and treatment groups. Seven days after inoculation, mice from the control group were treated orally with DMSO in a vehicle, whereas the compound group mice were treated with specified concentrations of compounds by oral administration twice a week for two weeks. The survival percentage of the mice in each group was recorded and plotted. The anti-tumor activity of the drug was evaluated by measuring the median survival time (MST) for each group.

CC(C)C[C@H](NC(=O)[C@@H](O)[C@H](N)Cc1ccccc1)B1OC(=O)C(CC(=O)O)(CC(=O)O)O1 [BC-05, 2,2′-(2-((R)-1-((2S,3R)-3-amino-2-hydroxy-4-phenylbutanamido)-3-methylbutyl)-5-oxo-1,3,2-dioxaborolane-4,4-diyl)diacetic acid]
IC50 (HEL): 13.3 ± 2.81 µM
IC50 (HCT116): 86.7 ± 7.34 µM
IC50 (U266): 13.7 ± 1.43 µM
IC50 (PC3): 47.4 ± 4.22 µM
IC50 (ARP-1): 10.2 ± 1.23 µM
IC50 (RPMI-8266): 15.1 ± 2.23 µM
IC50 (SP2): 14.7 ± 4.91 µM
IC50 (Hela): 83.1 ± 8.79 µM
IC50 (KG1): 41.6 ± 4.11 µM
IC50 (MDA-MB-231): 13.3 ± 0.49 µM
IC50 (HT-29): 12.5 ± 1.21 µM
IC50 (A2780): 33.7 ± 0.99 µM
IC50 (MM.1S): 1.53 ± 0.24 µM
IC50 (U251): 47.5 ± 11.9 µM
MST increase compared to the vehicle group (B16F10 cells; 0.008 mmol/kg oral): 1.4 fold
median survival time (MST) (B16F10 cells; 0.008 mmol/kg oral): 22 days
MST increase compared to the vehicle group (B16F10 cells; 0.012 mmol/kg oral): 1.6 fold
median survival time (MST) (B16F10 cells; 0.012 mmol/kg oral): 25 days
